From patent publication US20230159527A1, “COMPOUNDS AS BCL-2 INHIBITORS” (Fochon Pharmaceuticals, Ltd., priority 2020, published 2023)

Tests used:
Assay type in all cases: cell-based
[1] = tested on: Toledo cells; experiment: Cell proliferation assay, Toledo cells (MTS, 72 h); details: Homo sapiens, Toledo cells, MTS, read-out: Toledo IC50
Summary of the method: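 Toledo cells (30000/well, RPMI-1640 with 10% FBS) were preincubated for 4 h. They were then exposed to nine compound concentrations from 10000 to 1.5 nM for 72 h at 37 °C, 5% CO2. MTS was added for 2 h and absorbance read at 490 nm to give IC50.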

[2] = tested on: RS4;11-BCL-2 G101V cells; experiment: Cell proliferation assay, engineered RS4;11 cells stably overexpressing BCL-2 G101V (MTS, 168 h); details: Homo sapiens, RS4-11, 168 h, read-out: RS4, 11 BCL2- G101V
Procedure: (§1) MTS testing kit was purchased from Promega (Madison, Wis., USA). The RPMI-1640, Fetal bovine serum and Penicillin-Streptomycin were purchased from BI (Biological Industries, Beit Haemek, Israel). Puromycin was purchased from Beyotime (shanghai, China). Dimethyl sulfoxide (DMSO) was purchased from Sigma (St. Louis, Mo., USA). RS4;1l-BCL-2 G101V and RS4;11-BCL-2 F104L cells were cultured in RPM11640 supplemented with 1 ug/mL puromycin, 100 U/mL Penicillin-Streptomycin and 10% FBS.
(§2) To investigate whether a compound is able to inhibit the activity of BCL-2 mutation in cells, a mechanism-based assay using engineered cell lines stably overexpressing BCL-2 mutation ([…] and […]) was developed. In this assay, the inhibition of BCL-2 mutation was reflected by the inhibition of cell proliferation of RS4;11-BCL-2 G101V and RS4;11-BCL-2 F104L cells. Cells were plated into 96-well plates at optimized cell density (RS4;11-BCL-2 G101V: 5000 cells/well; RS4;11-BCL-2 F104L: 5000 cells/well). Plates were incubated at 37° C., with 5% CO2 for 4 h. Compounds were serially diluted to the final-concentrations of 10000, 3333.3, 1111.1, 370.4, 123.5, 41.2, 13.7, 4.6 and 1.4 nM and added to the plates. Plates were incubated at 37° C., with 5% CO2 for 168 h. 20 μl MTS was added into each well and the plates were incubated at 37° C., with 5% CO2 exactly for 2 h. The absorbance was measured by a microplate reader at 490 nm. IC50 values were calculated using GraphPad Prism 5.0 software.

[3] = tested on: RS4;11-BCL-2 F104L cells; experiment: Cell proliferation assay, engineered RS4;11 cells stably overexpressing BCL-2 F104L (MTS, 168 h); details: Homo sapiens, read-out: RS4, 11 BCL2-F104L
Procedure: as §1, §2

| SMILES | IC50 [2] [nM] | IC50 [3] [nM] | IC50 [1] [nM] |
| --- | --- | --- | --- |
| COc1nc2[nH]ccc2cc1Oc1cc(N2CCC3(CC2)CN([C@H]2CCC[C@H]2c2ccccc2C(C)C)C3)ccc1C(=O)NS(=O)(=O)c1cc2c(c([N+](=O)[O-])c1)N[C@@H]([C@H]1CC[C@](C)(O)CC1)CO2 (single isomer, unassigned) [Example D-97, N-(((S)-3-((1r,4S)-4-hydroxy-4-methylcyclohexyl)-5-nitro-3,4-dihydro-2H-benzo[b][1,4]oxazin-7-yl)sulfonyl)-4-(2-((1S,2S or 1R,2R)-2-(2-isopropylphenyl)cyclopentyl)-2,7-diazaspiro[3.5]nonan-7-yl)-2-((6-methoxy-1H-pyrrolo [2,3-b]pyridin-5-yl)oxy)benzamide] | 12 |  | 1 |
| COCCOc1nc2[nH]ccc2cc1Oc1cc(N2CCC3(CC2)CN([C@H]2CCC[C@H]2c2ccccc2C(C)C)C3)ccc1C(=O)NS(=O)(=O)c1cc2c(c([N+](=O)[O-])c1)N[C@@H]([C@H]1CC[C@](C)(O)CC1)CO2 (single isomer, unassigned) [Example D-75b, N-(((S)-3-((1r,4S)-4-hydroxy-4-methylcyclohexyl)-5-nitro-3,4-dihydro-2H-benzo[b][1,4]oxazin-7-yl)sulfonyl)-4-(2-((1S,2S or 1R,2R)-2-(2-isopropylphenyl)cyclopentyl)-2,7-diazaspiro[3.5]nonan-7-yl)-2-((6-(2-methoxyethoxy)-1H-pyrrolo[2,3-b]pyridin-5-yl)oxy) benzamide] | 16 |  | 1 |
| COCCOc1nc2[nH]ccc2cc1Oc1cc(N2CCC3(CC2)CN([C@H]2CCC[C@H]2c2ccccc2C(C)C)C3)ccc1C(=O)NS(=O)(=O)c1cc2c(c([N+](=O)[O-])c1)N[C@@H]([C@H]1CC[C@](C)(O)CC1)CO2 (racemic) [Example D-75a, N-(((S)-3-((1r,4S)-4-hydroxy-4-methylcyclohexyl)-5-nitro-3,4-dihydro-2H-benzo[b][1,4]oxazin-7-yl)sulfonyl)-4-(2-((1S,2S and 1R,2R)-2-(2-isopropylphenyl)cyclopentyl)-2,7-diazaspiro[3.5]nonan-7-yl)-2-((6-(2-methoxyethoxy)-1H-pyrrolo[2,3-b]pyridin-5-yl)oxy) benzamide] | 4 |  | 1 |
| Cc1nc2[nH]cc(F)c2cc1Oc1cc(N2CCC3(CC2)CC(N2CCC[C@H]2c2ccccc2C(C)C)C3)ccc1C(=O)NS(=O)(=O)c1cc2c(c([N+](=O)[O-])c1)N[C@@H]([C@H]1CC[C@](C)(O)CC1)CO2 (single isomer, unassigned) [Example D-244, 2-((3-fluoro-6-methyl-1H-pyrrolo [2,3-b]pyridin-5-yl)oxy)-N-(((S)-3-((1r,4S)-4-hydroxy-4-methylcyclohexyl)-5-nitro-3,4-dihydro-2H-benzo[b][1,4]oxazin-7-yl)sulfonyl)-4-(2-((R or S)-2-(2-isopropylphenyl)pyrrolidin-1-yl)-7-azaspiro[3.5]nonan-7-yl)benzamide] |  | 1 | 1 |
| Cc1nc2[nH]cc(F)c2cc1Oc1cc(N2CCC3(CC2)CN([C@H]2CCC[C@H]2c2ccccc2C(C)C)C3)ccc1C(=O)NS(=O)(=O)c1cc2c(c([N+](=O)[O-])c1)N[C@@H]([C@H]1CC[C@](C)(O)CC1)CO2 (single isomer, unassigned) [Example D-240, 2-((3-fluoro-6-methyl-1H-pyrrolo [2,3-b]pyridin-5-yl)oxy)-N-(((S)-3-((1r,4S)-4-hydroxy-4-methylcyclohexyl)-5-nitro-3,4-dihydro-2H-benzo[b][1,4]oxazin-7-yl)sulfonyl)-4-(2-((1S,2S or 1R,2R)-2-(2-isopropylphenyl)cyclopentyl)-2,7-diazaspiro[3.5]nonan-7-yl)benzamide] |  | 10 | 1 |
| Cc1nc2[nH]cc(F)c2cc1Oc1cc(N2CCC3(CC2)CN([C@H]2CCC[C@H]2c2ccccc2C(C)C)C3)ccc1C(=O)NS(=O)(=O)c1ccc(NC[C@H]2CC[C@](C)(O)CC2)c([N+](=O)[O-])c1 (single isomer, unassigned) [Example D-234, 2-((3-fluoro-6-methyl-1H-pyrrolo [2,3-b]pyridin-5-yl)oxy)-N-((4-((((1r,4r)-4-hydroxy-4-methylcyclohexyl)methyl)amino)-3-nitrophenyl)sulfonyl)-4-(2-((1S,2S or 1R,2R)-2-(2-isopropylphenyl)cyclopentyl)-2,7-diazaspiro[3.5]nonan-7-yl)benzamide] |  | 8 | 1 |
| CCOc1nc2[nH]cc(F)c2cc1Oc1cc(N2CCC3(CC2)CN([C@H]2CCC[C@H]2c2ccccc2C(C)C)C3)ccc1C(=O)NS(=O)(=O)c1ccc(NC[C@H]2CC[C@](C)(O)CC2)c([N+](=O)[O-])c1 (single isomer, unassigned) [Example D-110, 2-((6-ethoxy-3-fluoro-1H-pyrrolo [2,3-b]pyridin-5-yl)oxy)-N-((4-((((1r,4r)-4-hydroxy-4-methylcyclohexyl)methyl)amino)-3-nitrophenyl)sulfonyl)-4-(2-((1S,2S or 1R,2R)-2-(2-isopropylphenyl)cyclopentyl)-2,7-diazaspiro[3.5]nonan-7-yl)benzamide] |  | 15 | 1 |
| Cc1nc2[nH]cc(F)c2cc1Oc1cc(N2CCC3(CC2)CN([C@H]2CCC[C@H]2c2ccccc2C(C)C)C3)ccc1C(=O)NS(=O)(=O)c1cnc(NC[C@H]2CC[C@](C)(O)CC2)c([N+](=O)[O-])c1 (single isomer, unassigned) [Example A-156, 2-((3-fluoro-6-methyl-1H-pyrrolo[2,3-b]pyridin-5-yl)oxy)-N-((6-((((1r,4r)-4-hydroxy-4-methylcyclohexyl)methyl)amino)-5-nitropyridin-3-yl)sulfonyl)-4-(2-((1S,2S or 1R,2R)-2-(2-isopropylphenyl)cyclo-pentyl)-2,7-diazaspiro[3.5]nonan-7-yl) benzamide] |  | 16 | 1 |

The next lines start with results.

| IC50 [2] [nM] | IC50 [3] [nM] | SMILES | IC50 [1] [nM] |
| --- | --- | --- | --- |
| 15 |  | CNCCOc1nc2[nH]ccc2cc1Oc1cc(N2CCC3(CC2)CC(N2CCC[C@H]2c2ccccc2C(C)C)C3)ccc1C(=O)NS(=O)(=O)c1cc2c(c([N+](=O)[O-])c1)N[C@@H]([C@H]1CC[C@](C)(O)CC1)CO2 (single isomer, unassigned) [Example D-59, N-(((S)-3-((1r,4S)-4-hydroxy-4-methylcyclohexyl)-5-nitro-3,4-dihydro-2H-benzo[b][1,4]oxazin-7-yl)sulfonyl)-4-(2-((R or S)-2-(2-isopropylphenyl)pyrrolidin-1-yl)-7-azaspiro[3.5]nonan-7-yl)-2-((6-(2-(methylamino)ethoxy)-1H-pyrrolo[2,3-b]pyridin-5-yl)oxy)benzamide] | 1 |
|  | 8 | COc1nc2[nH]cc(F)c2cc1Oc1cc(N2CCC3(CC2)CC(N2CCC[C@H]2c2ccccc2C(C)C)C3)ccc1C(=O)NS(=O)(=O)c1cc2c(c([N+](=O)[O-])c1)N[C@@H]([C@H]1CC[C@](C)(O)CC1)CO2 (single isomer, unassigned) [Example D-83, 2-((3-fluoro-6-methoxy-1H-pyrrolo [2,3-b]pyridin-5-yl)oxy)-N-(((S)-3-((1r,4S)-4-hydroxy-4-methylcyclohexyl)-5-nitro-3,4-dihydro-2H-benzo[b][1,4]oxazin-7-yl)sulfonyl)-4-(2-((R or S)-2-(2-isopropylphenyl)pyrrolidin-1-yl)-7-azaspiro[3.5]nonan-7-yl)benzamide] | 1 |
|  | 34 | COc1nc2[nH]ccc2cc1Oc1cc(N2CCC3(CC2)CC(N2CCC[C@H]2c2ccccc2C(C)C)C3)ccc1C(=O)NS(=O)(=O)c1cc2c(c([N+](=O)[O-])c1)N[C@@H]([C@H]1CC[C@](C)(O)CC1)CO2 (single isomer, unassigned) [Example D-10, N-(((S)-3-((1r,4S)-4-hydroxy-4-methylcyclohexyl)-5-nitro-3,4-dihydro-2H-benzo[b][1,4]oxazin-7-yl)sulfonyl)-4-(2-((R or S)-2-(2-isopropylphenyl)pyrrolidin-1-yl)-7-azaspiro[3.5]nonan-7-yl)-2-((6-methoxy-1H-pyrrolo [2,3-b]pyridin-5-yl)oxy)benzamide] | 1 |
|  | 1 | CC(C)c1ccccc1[C@@H]1CCCN1C1CC2(CCN(c3ccc(C(=O)NS(=O)(=O)c4cc5c(c([N+](=O)[O-])c4)N[C@@H]([C@H]4CC[C@](C)(O)CC4)CO5)c(Oc4cc5cc[nH]c5nc4OC[C@H]4COCCO4)c3)CC2)C1 (single isomer, unassigned) [Example D-252, 2-((6-(((R)-1,4-dioxan-2-yl)methoxy)-1H-pyrrolo[2,3-b]pyridin-5-yl)oxy)-N-(((S)-3-((1r,4S)-4-hydroxy-4-methylcyclohexyl)-5-nitro-3,4-dihydro-2H-benzo[b][1,4]oxazin-7-yl)sulfonyl)-4-(2-((R or S)-2-(2-isopropylphenyl)pyrrolidin-1-yl)-7-azaspiro[3.5]nonan-7-yl)benzamide] | 1 |
